Entries after “also recorded” stand apart in the source; their conditions may differ. Where two headings read alike, the source gives them in different places.
What was measured:
TINUR (Nurr1) [1] = target: T1, TINUR (Nurr1) (Homo sapiens, UniProt P43354); experiment: Mammalian two hybrid luciferase reporter system for TINUR ligand search (GAL4-TINUR LBD or full length, NIH3T3 cells, with or without RXRα); format: cell-based; settings: for Nurr1 LBD-ligand activity RXR(+): TINUR LBD fused to GAL4, RXRα added, NIH3T3 luciferase, ◯ with concentration, X
T1 construct: expressed in transfected cells; host or cells: NIH3T3
Protocol: (§1) A TR3 or TINUR ligand-binding site is inserted into X, and the full-length retinoic acid X receptor (RXR) α gene is inserted into Y. These constructs are transfected into NIH3T3 cells, and the activity of induced luciferase is measured.
A plasmid comprising the TINUR ligand binding domain sequence inserted into pBIND, and a luciferase reporter plasmid comprising a GAL4 binding site, were co-transfected into NIH3T3 cells. Luciferase activity was measured automatically. At the same time, activity measurement was also carried out by adding retinoic acid X receptor (RXR) α-gene, a transcription factor that forms a heterodimer with TINUR. Low molecular weight substances can also be added to this system to screen using transcriptional enhancement activity.
Like TR3 expression, TINUR expression is enhanced in activated eosinophils. Ligands existing in vivo may exist in sites where nuclear receptors are highly expressed. […] Ligands of the nuclear receptor subfamily are assumed to have structural redundancy. Therefore, derivatives similar to TR3 activator compounds were added, and enhancement of transcriptional activity was investigated.
(§2) Thus, it was implied that prostaglandin A2 functions by acting on the LBD region of the nuclear receptor.
Target sequence in this assay (P43354 360-598): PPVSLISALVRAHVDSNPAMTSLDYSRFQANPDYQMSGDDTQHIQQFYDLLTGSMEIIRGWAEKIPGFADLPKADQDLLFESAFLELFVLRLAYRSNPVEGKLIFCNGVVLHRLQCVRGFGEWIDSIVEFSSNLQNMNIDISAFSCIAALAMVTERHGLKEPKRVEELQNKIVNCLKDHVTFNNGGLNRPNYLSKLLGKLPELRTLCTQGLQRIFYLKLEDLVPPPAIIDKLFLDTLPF

TINUR (Nurr1) [2] = target: T1, TINUR (Nurr1); experiment: as above; format: cell-based; settings: NIH3T3 luciferase, ◯ with concentration, X; for Full length Nurr1-ligand activity RXR(+): full length TINUR fused to GAL4, RXRα added; for Full length Nurr1-ligand activity RXR(−): full length TINUR fused to GAL4, without RXRα
Target sequence in this assay (P43354 whole entry, the tested form may be a part): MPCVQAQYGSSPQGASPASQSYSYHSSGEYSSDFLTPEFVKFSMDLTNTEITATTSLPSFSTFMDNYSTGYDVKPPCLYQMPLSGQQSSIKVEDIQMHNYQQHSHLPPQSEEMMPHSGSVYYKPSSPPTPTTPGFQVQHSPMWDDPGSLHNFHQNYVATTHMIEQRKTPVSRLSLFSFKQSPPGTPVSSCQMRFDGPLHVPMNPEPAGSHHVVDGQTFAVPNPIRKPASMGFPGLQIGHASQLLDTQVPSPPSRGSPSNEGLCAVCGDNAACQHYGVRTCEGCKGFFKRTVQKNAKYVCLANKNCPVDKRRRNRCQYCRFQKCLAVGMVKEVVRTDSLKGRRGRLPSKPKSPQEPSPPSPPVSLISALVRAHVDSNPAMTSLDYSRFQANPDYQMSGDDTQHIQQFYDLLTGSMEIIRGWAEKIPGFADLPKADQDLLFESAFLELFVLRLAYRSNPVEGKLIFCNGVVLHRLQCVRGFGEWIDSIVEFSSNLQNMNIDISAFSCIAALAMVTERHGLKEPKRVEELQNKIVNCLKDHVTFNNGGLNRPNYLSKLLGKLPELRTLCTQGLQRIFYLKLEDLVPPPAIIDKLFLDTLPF

TR3 (Nur77) [3] = target: T2, TR3 (Nur77) (Homo sapiens, UniProt P22736); experiment: Mammalian two hybrid luciferase reporter system for TR3 ligand search (GAL4-TR3 LBD or full length, NIH3T3 cells, with or without RXRα); format: cell-based; settings: for Full length Nur77-ligand activity RXR(+): full length TR3 fused to GAL4, RXRα added; for Full length Nur77-ligand activity RXR(+) / Full length Nur77-ligand activity RXR(−): NIH3T3 luciferase, ◯ with concentration, X; for Full length Nur77-ligand activity RXR(−): full length TR3 fused to GAL4, without RXRα
T2 construct: expressed in transfected cells; host or cells: NIH3T3

TR3 (Nur77) [4] = target: T2, TR3 (Nur77); experiment: as above; format: cell-based; settings: for Nur77 LBD-ligand activity RXR(+): TR3 LBD fused to GAL4, RXRα added, NIH3T3 luciferase, ◯ with concentration, X
Protocol: as §1
This was done to facilitate expression of a protein in which the DNA binding domains of TR3 and GAL4 were fused in frame. A plasmid comprising the TR3 ligand binding domain sequence inserted into pBIND, and a luciferase reporter plasmid comprising a GAL4 binding site, were co-transfected into NIH3T3 cells. Luciferase activity was measured automatically. At this time, activity was also measured by adding a retinoic acid X receptor (RXR) α-gene, which is a transcription factor that forms a heterodimer with TR3. By further adding low molecular weight substances to this system, transcriptional enhancement activity can also be used for screening.
TR3 expression is enhanced in activated eosinophils, such as in the peripheral blood of atopic dermatitis patients. Ligands existing in vivo may exist in sites where nuclear receptors are highly expressed. Therefore, small molecule lipid-soluble mediators considered to be produced under such conditions were added to the assay system, and evaluated based on their ability to enhance luciferase activity. […] In this manner, the method established by the present inventors paved the way for the high throughput discovery of native and synthetic TR3 ligands.
as §2

TR3 LBD = target: T3, TR3 LBD (Homo sapiens, UniProt P22736); experiment: Binding to TR3 GST-LBD by BIAcor S51; settings: BIAcor S51, comparison with GST as a base
T3 construct: TR3 GST-LBD and TINUR GST-LBD were respectively expressed in E. coli, and then purified; made in house; host or cells: E. coli
Source text: In the present invention, a biosensor utilizing the phenomenon of surface plasmon resonance may also be used to detect or measure the bound compound. […] Therefore, biosensors such as BIACORE can be used to evaluate binding between the TR3 or TINUR protein and a test compound.

TINUR LBD = target: T4, TINUR LBD (Homo sapiens, UniProt P43354); experiment: Binding to TINUR GST-LBD by BIAcor S51; settings: BIAcor S51, comparison with GST as a base
T4 construct: TR3 GST-LBD and TINUR GST-LBD were respectively expressed in E. coli, and then purified; made in house; host or cells: E. coli

TINUR (Nurr1) [5] = experiment: Mammalian two hybrid luciferase reporter system for TINUR ligand search (GAL4-TINUR LBD or full length, NIH3T3 cells, with or without RXRα); format: cell-based, human; settings: LBD deletion mutant (ΔLBD)
[6] = tested on: TR3 expression in peripheral blood eosinophils; experiment: TR3 expression induction in cultured peripheral blood eosinophils; format: cell-based, human; settings: cultured peripheral blood eosinophils from healthy subjects, one to three-hour treatment

T4 sequence (P43354 360-595 limits assumed): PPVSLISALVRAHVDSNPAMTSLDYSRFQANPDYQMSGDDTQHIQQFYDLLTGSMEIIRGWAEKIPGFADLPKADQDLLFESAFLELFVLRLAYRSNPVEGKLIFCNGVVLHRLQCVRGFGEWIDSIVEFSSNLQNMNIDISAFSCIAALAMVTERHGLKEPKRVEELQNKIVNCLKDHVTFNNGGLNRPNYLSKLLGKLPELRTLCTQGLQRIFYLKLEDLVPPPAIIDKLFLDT
T3 sequence (P22736 360-595 limits assumed): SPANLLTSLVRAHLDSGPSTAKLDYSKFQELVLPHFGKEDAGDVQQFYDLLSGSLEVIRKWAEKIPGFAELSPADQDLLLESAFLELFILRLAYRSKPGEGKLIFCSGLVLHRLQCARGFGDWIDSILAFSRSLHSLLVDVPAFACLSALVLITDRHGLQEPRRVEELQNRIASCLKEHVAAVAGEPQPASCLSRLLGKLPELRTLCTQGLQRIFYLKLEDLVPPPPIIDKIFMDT

Row | Nurr1 LBD-ligand activity RXR(+) (TINUR (Nurr1) [1]) | Full length Nurr1-ligand activity RXR(+) (TINUR (Nurr1) [2]) | Full length Nur77-ligand activity RXR(+) (TR3 (Nur77) [3]) | Full length Nur77-ligand activity RXR(−) (TR3 (Nur77) [3]) | Nur77 LBD-ligand activity RXR(+) (TR3 (Nur77) [4]) | binding to the LBD of TR3 (TR3 LBD) | binding to the LBD of TINUR (TINUR LBD) | Full length Nurr1-ligand activity RXR(−) (TINUR (Nurr1) [2]) | transcriptional activity with TR3 gene completely lacking an LBD region (TR3 (Nur77) [3]; LBD deletion mutant (ΔLBD)) | Molecule | activity of activating TINUR transcription (luciferase reporter), in words (TINUR (Nurr1) [1]) | activity of enhancing the transcription-activating ability of TR3 (luciferase reporter), in words (TR3 (Nur77) [4]) | transcriptional activity with TINUR gene completely lacking an LBD region (TINUR (Nurr1) [5]) | activity of activating TINUR transcription (luciferase reporter), in words (TINUR (Nurr1) [1]; listed as 15-deoxy-delta 12,14-prostaglandin J2) | TR3 induction [6]
1 | ◯10 μM | ◯10 μM | ◯10 μM | ◯10 μM | ◯10 μM | detected | detected | ◯10 μM | suppressed | CCCCC[C@H](O)/C=C/[C@H]1C=CC(=O)[C@@H]1C/C=C\CCCC(=O)O [Prostaglandin A2] | ligand activators; also recorded: found to comprise the activity of activating TINUR transcription | ligand activators for TR3; also recorded: the activity of enhancing the transcription-activating ability of TR3 was found | suppressed |  | 
2 | ◯10 μM |  | ◯10 μM | ◯10 μM | ◯10 μM |  |  |  |  | CCCCC[C@@H](O)/C=C/[C@H]1C=CC(=O)[C@@H]1CCCCCCC(=O)O [15-epiProstaglandin A1] | ligand activators; also recorded: found to comprise the activity of activating TINUR transcription | ligand activators for TR3; also recorded: the activity of enhancing the transcription-activating ability of TR3 was found |  |  | 
3 | ◯10 μM | ◯10 μM | ◯10 μM |  | ◯10 μM |  |  |  |  | O=C(O)CCC/C=C\C[C@H]1C(=O)C=C[C@@H]1/C=C/[C@@H](O)CCc1ccccc1 [17-phenyl trinorProstaglandin A2] | ligand activators; also recorded: found to comprise the activity of activating TINUR transcription | ligand activators for TR3 |  |  | 
4 | ◯10 μM |  | ◯10 μM | ◯10 μM |  |  |  |  |  | CCCCC/C=C/C=C1/C(=O)C=C[C@@H]1C/C=C\CCCC(=O)O [15-deoxy-Δ^12.14_Prostaglandin J2] |  | ligand activators for TR3 |  | ligand activators; also recorded: found to comprise the activity of activating TINUR transcription | 
5 | ◯10 μM | ◯10 μM | ◯10 μM | ◯10 μM | ◯10 μM | detected | detected | ◯10 μM |  | CCCCC[C@H](O)/C=C/[C@H]1C=CC(=O)[C@@H]1CCCCCCC(=O)O [Prostaglandin A1] | ligand activators; also recorded: found to comprise the activity of activating TINUR transcription | ligand activators for TR3; also recorded: the activity of enhancing the transcription-activating ability of TR3 was found |  |  | 
6 | ◯10 μM | ◯30 μM |  | ◯30 μM |  |  |  | ◯30 μM |  | O=C(O)CCC/C=C\C[C@H]1C(=O)C=C[C@@H]1/C=C/[C@@H](O)COc1ccccc1 [16-phenoxytetranorProstaglandin A2] | ligand activators; also recorded: found to comprise the activity of activating TINUR transcription | ligand activators for TR3 |  |  | 

Further lines, the molecule ahead of its results:

Row | Molecule | Nurr1 LBD-ligand activity RXR(+) (TINUR (Nurr1) [1]) | Full length Nurr1-ligand activity RXR(+) (TINUR (Nurr1) [2]) | Full length Nur77-ligand activity RXR(+) (TR3 (Nur77) [3]) | Full length Nur77-ligand activity RXR(−) (TR3 (Nur77) [3]) | Nur77 LBD-ligand activity RXR(+) (TR3 (Nur77) [4]) | binding to the LBD of TR3 (TR3 LBD) | binding to the LBD of TINUR (TINUR LBD) | Full length Nurr1-ligand activity RXR(−) (TINUR (Nurr1) [2]) | transcriptional activity with TR3 gene completely lacking an LBD region (TR3 (Nur77) [3]; LBD deletion mutant (ΔLBD)) | activity of activating TINUR transcription (luciferase reporter), in words (TINUR (Nurr1) [1]) | activity of enhancing the transcription-activating ability of TR3 (luciferase reporter), in words (TR3 (Nur77) [4]) | transcriptional activity with TINUR gene completely lacking an LBD region (TINUR (Nurr1) [5]) | activity of activating TINUR transcription (luciferase reporter), in words (TINUR (Nurr1) [1]; listed as 15-deoxy-delta 12,14-prostaglandin J2) | TR3 induction [6]
7 | CCCCC[C@@](C)(O)/C=C/[C@H]1C=CC(=O)[C@@H]1C/C=C\CCCC(=O)O [15(R)-15-methylProstaglandin A2] | ◯10 μM | ◯10 μM | ◯10 μM | ◯10 μM | ◯10 μM |  |  |  |  | ligand activators; also recorded: found to comprise the activity of activating TINUR transcription | ligand activators for TR3; also recorded: the activity of enhancing the transcription-activating ability of TR3 was found |  |  | 
8 | CCCCC[C@H](O)C/C=C1/C(=O)C=C[C@@H]1C/C=C\CCCC(=O)O [Δ12-Prostaglandin J2] |  |  |  |  |  |  |  |  |  |  | the activity of enhancing the transcription-activating ability of TR3 was found |  |  | 
9 | CCCCC[C@H](O)/C=C/[C@H]1C=CC(=O)[C@H]1CCCCCCC(=O)O [8-isoProstaglandin A1] | ◯10 μM | ◯10 μM | ◯ 3 μM |  | ◯10 μM |  |  |  |  | ligand activators; also recorded: found to comprise the activity of activating TINUR transcription | ligand activators for TR3 |  |  | 
10 | CCCCC/C=C/C=C1/C=CC(=O)[C@@H]1CCCCCCC(=O)O [15-deoxy-Δ^12.14_Prostaglandin A1] |  |  | ◯30 μM |  | ◯30 μM |  |  |  |  |  | ligand activators for TR3 |  |  | 
11 | IL-5: cytokine used for eosinophil activation |  |  |  |  |  |  |  |  |  |  |  |  |  | did not lead to TR3 induction
12 | IL-4: cytokine used for eosinophil activation (protein, UniProt P05112 25-153, looked up) Interleukin-4: HKCDITLQEIIKTLNSLTEQKTLCTELTVTDIFAASKNTTEKETFCRAATVLRQFYSHHEKDTRCLGATAQQFHRHKQLIRFLKRLDRNLWGLAGLNSCPVKEANQSTLENFLERLKTIMREKYSKCSS |  |  |  |  |  |  |  |  |  |  |  |  |  | did not lead to TR3 induction
